#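 Cells were grown in 96-well plates and exposed to each compound for 48 hours at five concentrations; endpoints were interpolated linearly between bracketing concentrations, or set to the highest concentration if not reached. GI50 is the concentration that inhibits growth by half. The concentration for full growth arrest is given as TGI.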
# Columns and labels:
# Assay in all cases: NCI-60 cell line screen, 48 h
# [1] = system: 786-0 renal
# [2] = system: A498 renal
# [3] = system: A549 NSCLC
# [4] = system: ACHN renal
# [5] = system: BT-549 breast
# [6] = system: CAKI-1 renal
# [7] = system: CCRF-CEM leukemia
# [8] = system: COLO 205 colon
# [9] = system: DU-145 prostate
# [10] = system: EKVX NSCLC
# [11] = system: HCC-2998 colon
# [12] = system: HCT-116 colon
# [13] = system: HCT-15 colon
# [14] = system: HL-60(TB) leukemia
# [15] = system: HOP-62 NSCLC
# [16] = system: HS 578T breast
# [17] = system: HT29 colon
# [18] = system: IGROV1 ovarian
# [19] = system: K-562 leukemia
# [20] = system: KM12 colon
# [21] = system: LOX IMVI melanoma
# [22] = system: M14 melanoma
# [23] = system: MALME-3M melanoma
# [24] = system: MCF7 breast
# [25] = system: MDA-MB-231 breast
# [26] = system: MDA-MB-435
# [27] = system: MOLT-4 leukemia
# [28] = system: NCI-H226 lung
# [29] = system: NCI-H23 lung
# [30] = system: NCI-H460 lung
# [31] = system: NCI-H522 lung
# [32] = system: NCI/ADR-RES ovarian
# [33] = system: OVCAR-3 ovarian
# [34] = system: OVCAR-4 ovarian
# [35] = system: OVCAR-5 ovarian
# [36] = system: OVCAR-8 ovarian
# [37] = system: PC-3 prostate
# [38] = system: RPMI-8226 leukemia
# [39] = system: RXF 393 renal
# [40] = system: SF-268 CNS
# [41] = system: SF-295 CNS
# [42] = system: SF-539 CNS
# [43] = system: SK-MEL-2 melanoma
# [44] = system: SK-MEL-28 melanoma
# [45] = system: SK-MEL-5 melanoma
# [46] = system: SK-OV-3 ovarian
# [47] = system: SN12C renal
# [48] = system: SNB-19 CNS
# [49] = system: SNB-75 CNS
# [50] = system: SR leukemia
# [51] = system: SW-620 colon
# [52] = system: T-47D breast
# [53] = system: TK-10 renal
# [54] = system: U251 CNS
# [55] = system: UACC-257 melanoma
# [56] = system: UACC-62 melanoma
# [57] = system: UO-31 renal
smiles,measurement,setting,value
CNc1nc(C)c(-c2nc(Nc3cccc(S(N)(=O)=O)c3)ncc2F)s1,GI50,[1],24.8 nM
same,TGI,[1],3420 nM
same,GI50,[2],< 16.8 nM
same,TGI,[2],< 30.8 nM
same,GI50,[3],87.4 nM
same,TGI,[3],15200 nM
same,GI50,[4],26.6 nM
same,TGI,[4],11700 nM
same,GI50,[5],22.8 nM
same,TGI,[5],75.3 nM
same,GI50,[6],52 nM
same,TGI,[6],37200 nM
same,GI50,[7],35.8 nM
same,TGI,[7],> 40900 nM
same,GI50,[8],21.2 nM
same,TGI,[8],53.2 nM
same,GI50,[9],35.8 nM
same,TGI,[9],17600 nM
same,GI50,[10],74.7 nM
same,TGI,[10],3780 nM
same,GI50,[11],40.8 nM
same,TGI,[11],2480 nM
same,GI50,[12],< 16.1 nM
same,TGI,[12],12500 nM
same,GI50,[13],48 nM
same,TGI,[13],12100 nM
same,GI50,[14],30.9 nM
same,TGI,[14],108 nM
same,GI50,[15],< 20.1 nM
same,GI50,[16],42.9 nM
same,TGI,[16],3970 nM
same,GI50,[17],60.5 nM
same,TGI,[17],10800 nM
same,GI50,[18],34.9 nM
same,TGI,[18],12300 nM
same,GI50,[19],66.8 nM
same,TGI,[19],24400 nM
same,GI50,[20],36.8 nM
same,TGI,[20],4430 nM
same,GI50,[21],22.3 nM
same,TGI,[21],3940 nM
same,GI50,[22],30.5 nM
same,TGI,[22],1580 nM
same,GI50,[23],79.7 nM
same,TGI,[23],187 nM
same,GI50,[24],25.5 nM
same,TGI,[24],4640 nM
same,GI50,[25],41.6 nM
same,TGI,[25],5980 nM
same,GI50,[26],37.9 nM
same,TGI,[26],2450 nM
same,GI50,[27],30.9 nM
same,TGI,[27],185 nM
same,GI50,[28],21.9 nM
same,TGI,[28],3540 nM
same,GI50,[29],43.2 nM
same,TGI,[29],171 nM
same,GI50,[30],77.6 nM
same,TGI,[30],3890 nM
same,GI50,[31],44.9 nM
same,TGI,[31],137 nM
same,GI50,[32],88.6 nM
same,TGI,[32],9170 nM
same,GI50,[33],30.2 nM
same,TGI,[33],14400 nM
same,GI50,[34],52.4 nM
same,TGI,[34],12500 nM
same,GI50,[35],32.4 nM
same,TGI,[35],15100 nM
same,GI50,[36],39.4 nM
same,TGI,[36],15900 nM
same,GI50,[37],38.8 nM
same,TGI,[37],1270 nM
same,GI50,[38],95.8 nM
same,TGI,[38],273 nM
same,GI50,[39],17.6 nM
same,TGI,[39],30.1 nM
same,GI50,[40],28.7 nM
same,TGI,[40],1440 nM
same,GI50,[41],40.6 nM
same,TGI,[41],6790 nM
same,GI50,[42],23.3 nM
same,TGI,[42],66.4 nM
same,GI50,[43],35.8 nM
same,TGI,[43],93.9 nM
same,GI50,[44],31.9 nM
same,TGI,[44],278 nM
same,GI50,[45],29.6 nM
same,TGI,[45],639 nM
same,GI50,[46],92.5 nM
same,TGI,[46],12400 nM
same,GI50,[47],31.3 nM
same,TGI,[47],2690 nM
same,GI50,[48],27.3 nM
same,TGI,[48],14100 nM
same,GI50,[49],44 nM
same,TGI,[49],147 nM
same,GI50,[50],17.1 nM
same,TGI,[50],1150 nM
same,GI50,[51],28.3 nM
same,TGI,[51],14700 nM
same,GI50,[52],27.4 nM
same,TGI,[52],472 nM
same,GI50,[53],64.4 nM
same,TGI,[53],1170 nM
same,GI50,[54],26.8 nM
same,TGI,[54],11500 nM
same,GI50,[55],65.7 nM
same,TGI,[55],232 nM
same,GI50,[56],22.4 nM
same,TGI,[56],74.1 nM
same,GI50,[57],35 nM
same,TGI,[57],505 nM

# — PubChem BioAssay (NCI)
